Assays:
Conditions in all cases: Compound concentration 1000.0 nM
[1] = test system: Tyrosine-protein kinase ABL1 (Homo sapiens), P00519 [F317L]
[2] = test system: Tyrosine-protein kinase ABL1 (Homo sapiens), P00519 [Q252H]
[3] = test system: Tyrosine-protein kinase ABL1 (Homo sapiens), P00519 [T315I]
[4] = target: RAC-gamma serine/threonine-protein kinase (Homo sapiens) (UniProt Q9Y243)
[5] = target: NUAK family SNF1-like kinase 1 (Homo sapiens) (UniProt O60285)
[6] = target: Peripheral plasma membrane protein CASK (Homo sapiens) (UniProt O14936)
[7] = target: Cyclin-dependent kinase 13 (Homo sapiens) (UniProt Q14004)
[8] = target: Cyclin-dependent kinase-like 5 (Homo sapiens) (UniProt O76039)
[9] = target: Dual specificity protein kinase CLK4 (Homo sapiens) (UniProt Q9HAZ1)
[10] = target: Epithelial discoidin domain-containing receptor 1 (Homo sapiens) (UniProt Q08345)
[11] = test system: Epidermal growth factor receptor (Homo sapiens), P00533 [UNDEFINED MUTATION]
[12] = test system: Epidermal growth factor receptor (Homo sapiens), P00533 [L858R]
[13] = target: Ephrin type-B receptor 3 (Homo sapiens) (UniProt P54753)
[14] = target: Mitogen-activated protein kinase 3 (Homo sapiens) (UniProt P27361)
[15] = target: Tyrosine-protein kinase Fer (Homo sapiens) (UniProt P16591)
[16] = test system: Receptor-type tyrosine-protein kinase FLT3 (Homo sapiens), P36888 [UNDEFINED MUTATION]
[17] = test system: Receptor-type tyrosine-protein kinase FLT3 (Homo sapiens), P36888 [N841I]
[18] = test system: eIF-2-alpha kinase GCN2 (Homo sapiens), Q9P2K8 [S808G]
[19] = target: Tyrosine-protein kinase JAK1 (Homo sapiens) (UniProt P23458)
[20] = target: Mitogen-activated protein kinase 9 (Homo sapiens) (UniProt P45984)
[21] = target: LIM domain kinase 2 (Homo sapiens) (UniProt P53671)
[22] = target: Leucine-rich repeat serine/threonine-protein kinase 2 (Homo sapiens) (UniProt Q5S007)
[23] = target: Mitogen-activated protein kinase kinase kinase 2 (Homo sapiens) (UniProt Q9Y2U5)
[24] = target: Tyrosine-protein kinase Mer (Homo sapiens) (UniProt Q12866)
[25] = target: Mitogen-activated protein kinase kinase kinase 11 (Homo sapiens) (UniProt Q16584)
[26] = target: Serine/threonine-protein kinase 26 (Homo sapiens) (UniProt Q9P289)
[27] = target: Myosin light chain kinase, smooth muscle (Homo sapiens) (UniProt Q15746)
[28] = target: Serine/threonine-protein kinase 38-like (Homo sapiens) (UniProt Q9Y2H1)
[29] = target: Serine/threonine-protein kinase Nek7 (Homo sapiens, UniProt Q8TDX7)
[30] = target: Cyclin-dependent kinase 17 (Homo sapiens) (UniProt Q00537)
[31] = target: Calcium-dependent protein kinase 1 (Plasmodium falciparum) (UniProt P62344)
[32] = target: Cyclin-dependent kinase 2 homolog (Plasmodium falciparum (isolate 3D7)) (UniProt P61075)
[33] = target: Phosphatidylinositol 4,5-bisphosphate 3-kinase catalytic subunit alpha isoform (Homo sapiens) (UniProt P42336)
[34] = target: Phosphatidylinositol 4,5-bisphosphate 3-kinase catalytic subunit gamma isoform (Homo sapiens) (UniProt P48736)
[35] = target: Serine/threonine-protein kinase pim-3 (Homo sapiens) (UniProt Q86V86)
[36] = target: Serine/threonine-protein kinase RIO2 (Homo sapiens) (UniProt Q9BVS4)
[37] = target: Ribosomal protein S6 kinase alpha-2 (Homo sapiens) (UniProt Q15349)
[38] = target: Ribosomal protein S6 kinase alpha-6 (Homo sapiens) (UniProt Q9UK32)
[39] = target: Serine/threonine-protein kinase Sgk1 (Homo sapiens) (UniProt O00141)
[40] = target: Uncharacterized serine/threonine-protein kinase SBK3 (Homo sapiens) (UniProt P0C264)
[41] = target: Proto-oncogene tyrosine-protein kinase Src (Homo sapiens) (UniProt P12931)
[42] = target: Tyrosine-protein kinase SYK (Homo sapiens) (UniProt P43405)
[43] = target: Serine/threonine-protein kinase TAO1 (Homo sapiens) (UniProt Q7L7X3)
[44] = target: High affinity nerve growth factor receptor (Homo sapiens) (UniProt P04629)
[45] = target: Serine/threonine-protein kinase ULK1 (Homo sapiens) (UniProt O75385)

Measured: residual activity

Sequence of Dual specificity protein kinase CLK4 (Homo sapiens) (Q9HAZ1 whole entry, looked up, the tested form may be a part): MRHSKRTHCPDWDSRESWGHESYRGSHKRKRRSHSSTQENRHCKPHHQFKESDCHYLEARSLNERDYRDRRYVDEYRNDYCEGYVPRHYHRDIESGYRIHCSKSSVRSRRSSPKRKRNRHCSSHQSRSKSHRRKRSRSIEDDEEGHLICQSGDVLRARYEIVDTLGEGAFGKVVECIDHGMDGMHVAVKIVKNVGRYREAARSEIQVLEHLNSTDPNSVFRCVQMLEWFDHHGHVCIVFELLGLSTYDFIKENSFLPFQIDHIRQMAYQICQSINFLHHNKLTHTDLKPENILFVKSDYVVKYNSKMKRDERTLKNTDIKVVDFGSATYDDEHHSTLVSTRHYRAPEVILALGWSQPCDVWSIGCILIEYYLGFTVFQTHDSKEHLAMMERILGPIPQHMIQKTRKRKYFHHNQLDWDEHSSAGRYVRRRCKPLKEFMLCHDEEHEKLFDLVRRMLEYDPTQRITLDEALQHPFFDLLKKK
Sequence of Phosphatidylinositol 4,5-bisphosphate 3-kinase catalytic subunit alpha isoform (Homo sapiens) (P42336 whole entry, canonical isoform): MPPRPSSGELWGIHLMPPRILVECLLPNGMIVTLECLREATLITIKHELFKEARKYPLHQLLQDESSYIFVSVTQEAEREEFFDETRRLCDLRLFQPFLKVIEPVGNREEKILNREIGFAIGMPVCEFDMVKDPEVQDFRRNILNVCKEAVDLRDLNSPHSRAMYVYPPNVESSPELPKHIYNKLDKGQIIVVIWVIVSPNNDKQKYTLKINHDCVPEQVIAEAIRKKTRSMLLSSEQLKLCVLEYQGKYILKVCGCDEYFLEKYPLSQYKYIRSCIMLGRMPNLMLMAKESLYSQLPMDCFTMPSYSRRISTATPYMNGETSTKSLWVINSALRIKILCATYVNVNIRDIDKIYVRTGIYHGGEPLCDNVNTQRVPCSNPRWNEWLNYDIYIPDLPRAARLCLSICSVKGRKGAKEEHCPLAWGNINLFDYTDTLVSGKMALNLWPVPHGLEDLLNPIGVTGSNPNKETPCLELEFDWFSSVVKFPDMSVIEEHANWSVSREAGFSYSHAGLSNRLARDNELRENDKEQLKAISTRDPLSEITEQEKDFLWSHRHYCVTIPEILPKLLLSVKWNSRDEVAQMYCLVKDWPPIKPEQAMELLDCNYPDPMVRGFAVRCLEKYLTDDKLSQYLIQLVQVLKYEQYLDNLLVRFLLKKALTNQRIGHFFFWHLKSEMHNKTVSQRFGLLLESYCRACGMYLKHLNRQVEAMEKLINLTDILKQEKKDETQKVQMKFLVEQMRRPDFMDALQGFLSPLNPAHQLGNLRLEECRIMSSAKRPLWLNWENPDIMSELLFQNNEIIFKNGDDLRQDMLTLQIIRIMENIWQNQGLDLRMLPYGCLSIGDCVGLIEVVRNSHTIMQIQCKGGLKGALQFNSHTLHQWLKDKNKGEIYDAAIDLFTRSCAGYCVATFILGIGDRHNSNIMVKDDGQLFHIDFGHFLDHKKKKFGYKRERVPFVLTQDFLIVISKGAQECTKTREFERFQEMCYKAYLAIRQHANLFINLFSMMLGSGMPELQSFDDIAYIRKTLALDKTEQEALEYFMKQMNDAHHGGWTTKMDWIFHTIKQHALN
Sequence of Mitogen-activated protein kinase 3 (Homo sapiens) (P27361 whole entry): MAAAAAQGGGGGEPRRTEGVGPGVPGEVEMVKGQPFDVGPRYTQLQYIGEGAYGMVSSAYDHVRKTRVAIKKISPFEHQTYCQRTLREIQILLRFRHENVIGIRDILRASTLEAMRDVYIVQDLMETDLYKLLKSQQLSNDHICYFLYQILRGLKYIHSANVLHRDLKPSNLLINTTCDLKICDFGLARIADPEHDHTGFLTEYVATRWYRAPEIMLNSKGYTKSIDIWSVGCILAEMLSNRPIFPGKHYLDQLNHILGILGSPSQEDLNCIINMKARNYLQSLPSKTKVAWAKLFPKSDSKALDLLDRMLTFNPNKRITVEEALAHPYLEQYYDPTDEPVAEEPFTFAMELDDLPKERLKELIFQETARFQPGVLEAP
Sequence of Tyrosine-protein kinase JAK1 (Homo sapiens) (P23458 whole entry): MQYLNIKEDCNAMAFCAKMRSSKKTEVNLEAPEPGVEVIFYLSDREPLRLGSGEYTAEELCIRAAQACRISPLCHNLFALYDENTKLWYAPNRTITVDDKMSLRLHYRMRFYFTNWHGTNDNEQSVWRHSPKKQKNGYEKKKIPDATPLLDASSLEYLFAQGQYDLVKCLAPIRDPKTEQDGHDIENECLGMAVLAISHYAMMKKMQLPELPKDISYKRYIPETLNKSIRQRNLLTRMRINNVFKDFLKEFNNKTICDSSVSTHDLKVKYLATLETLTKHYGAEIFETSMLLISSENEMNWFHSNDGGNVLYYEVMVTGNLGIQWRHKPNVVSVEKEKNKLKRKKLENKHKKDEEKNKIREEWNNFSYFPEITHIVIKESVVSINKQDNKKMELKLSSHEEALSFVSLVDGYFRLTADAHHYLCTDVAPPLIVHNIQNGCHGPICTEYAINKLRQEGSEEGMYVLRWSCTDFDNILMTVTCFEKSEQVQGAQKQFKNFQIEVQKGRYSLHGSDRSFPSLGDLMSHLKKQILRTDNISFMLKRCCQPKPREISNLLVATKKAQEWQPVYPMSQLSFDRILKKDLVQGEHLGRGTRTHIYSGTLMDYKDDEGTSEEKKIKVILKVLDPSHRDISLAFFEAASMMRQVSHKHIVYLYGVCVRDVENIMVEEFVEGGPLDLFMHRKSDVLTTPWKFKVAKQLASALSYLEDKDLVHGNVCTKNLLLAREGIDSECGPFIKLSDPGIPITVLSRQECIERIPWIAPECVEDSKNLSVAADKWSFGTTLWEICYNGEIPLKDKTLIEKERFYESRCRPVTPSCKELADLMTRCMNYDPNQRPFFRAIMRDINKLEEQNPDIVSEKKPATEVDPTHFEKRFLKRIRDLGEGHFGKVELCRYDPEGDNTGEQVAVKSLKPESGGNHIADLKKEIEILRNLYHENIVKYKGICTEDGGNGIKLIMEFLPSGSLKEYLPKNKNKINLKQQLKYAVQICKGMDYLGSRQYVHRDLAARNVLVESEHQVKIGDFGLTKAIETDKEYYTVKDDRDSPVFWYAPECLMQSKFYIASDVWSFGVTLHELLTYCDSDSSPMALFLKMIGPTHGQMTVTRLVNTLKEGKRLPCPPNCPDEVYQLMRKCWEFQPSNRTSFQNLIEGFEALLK
Sequence of Epithelial discoidin domain-containing receptor 1 (Homo sapiens) (Q08345 whole entry, the tested form may be a part): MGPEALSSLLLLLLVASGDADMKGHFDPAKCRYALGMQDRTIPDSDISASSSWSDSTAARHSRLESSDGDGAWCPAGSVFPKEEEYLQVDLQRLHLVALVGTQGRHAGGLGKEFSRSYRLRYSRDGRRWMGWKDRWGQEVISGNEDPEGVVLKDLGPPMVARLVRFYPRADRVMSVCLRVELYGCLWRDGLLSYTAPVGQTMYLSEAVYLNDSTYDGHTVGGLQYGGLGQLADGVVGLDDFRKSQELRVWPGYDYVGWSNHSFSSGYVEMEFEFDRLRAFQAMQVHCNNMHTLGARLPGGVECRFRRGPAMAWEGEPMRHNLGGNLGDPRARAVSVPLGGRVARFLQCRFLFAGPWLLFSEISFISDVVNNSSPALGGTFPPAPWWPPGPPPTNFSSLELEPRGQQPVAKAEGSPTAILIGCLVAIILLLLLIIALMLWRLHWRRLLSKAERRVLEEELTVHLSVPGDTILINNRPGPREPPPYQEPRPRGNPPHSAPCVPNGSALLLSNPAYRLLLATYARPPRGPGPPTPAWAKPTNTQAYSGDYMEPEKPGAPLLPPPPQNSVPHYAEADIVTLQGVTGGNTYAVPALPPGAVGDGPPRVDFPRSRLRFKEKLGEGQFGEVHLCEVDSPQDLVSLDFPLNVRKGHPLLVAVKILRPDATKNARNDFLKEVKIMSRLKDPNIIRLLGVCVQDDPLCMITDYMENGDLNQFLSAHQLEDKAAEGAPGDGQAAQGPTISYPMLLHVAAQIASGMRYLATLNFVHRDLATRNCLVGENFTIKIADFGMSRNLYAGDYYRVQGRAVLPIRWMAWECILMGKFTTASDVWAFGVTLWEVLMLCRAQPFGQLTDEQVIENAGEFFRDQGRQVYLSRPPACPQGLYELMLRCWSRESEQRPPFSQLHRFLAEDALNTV
Sequence of Cyclin-dependent kinase 2 homolog (Plasmodium falciparum (isolate 3D7)) (P61075 whole entry, canonical isoform): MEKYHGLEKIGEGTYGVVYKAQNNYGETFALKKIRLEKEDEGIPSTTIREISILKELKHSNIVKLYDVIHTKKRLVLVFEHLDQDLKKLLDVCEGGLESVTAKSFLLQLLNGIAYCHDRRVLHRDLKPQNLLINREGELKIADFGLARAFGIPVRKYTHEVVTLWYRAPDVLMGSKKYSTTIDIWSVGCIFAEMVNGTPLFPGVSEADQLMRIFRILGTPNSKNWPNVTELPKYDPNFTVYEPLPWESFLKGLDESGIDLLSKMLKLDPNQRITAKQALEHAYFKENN
Sequence of NUAK family SNF1-like kinase 1 (Homo sapiens) (O60285 whole entry): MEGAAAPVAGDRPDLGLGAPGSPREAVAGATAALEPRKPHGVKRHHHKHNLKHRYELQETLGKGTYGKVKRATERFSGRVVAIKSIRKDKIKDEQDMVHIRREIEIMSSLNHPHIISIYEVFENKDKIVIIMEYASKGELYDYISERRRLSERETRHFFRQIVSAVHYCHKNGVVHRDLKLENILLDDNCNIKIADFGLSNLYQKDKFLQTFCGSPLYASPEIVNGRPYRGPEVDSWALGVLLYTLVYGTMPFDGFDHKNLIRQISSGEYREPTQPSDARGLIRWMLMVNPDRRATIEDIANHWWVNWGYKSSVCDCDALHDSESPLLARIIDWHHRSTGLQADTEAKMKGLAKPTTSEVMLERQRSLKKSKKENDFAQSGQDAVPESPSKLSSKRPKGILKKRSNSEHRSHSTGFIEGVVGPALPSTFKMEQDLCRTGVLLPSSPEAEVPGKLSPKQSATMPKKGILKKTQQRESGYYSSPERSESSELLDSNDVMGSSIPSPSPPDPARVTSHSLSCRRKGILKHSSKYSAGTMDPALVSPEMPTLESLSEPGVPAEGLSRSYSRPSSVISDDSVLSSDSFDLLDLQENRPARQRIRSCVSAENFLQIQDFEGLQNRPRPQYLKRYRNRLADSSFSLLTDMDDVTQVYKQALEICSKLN

Cn1cncc1[C@@](O)(COc1ccc(C#N)cc1-c1ccc(OC(F)(F)F)cc1)c1ccc(C#N)cc1 [A-108]
inactive: [1] 100% | [2] 76% | [3] 100% | [4] 100% | [5] 100% | [6] 92% | [7] 87% | [8] 93% | [9] 96% | [10] 100% | [11] 100% | [12] 100% | [14] 83% | [15] 100% | [16] 80% | [17] 100% | [18] 100% | [19] 100% | [20] 92% | [21] 82% | [22] 100% | [23] 100% | [24] 69% | [25] 100% | [26] 99% | [27] 99% | [28] 87% | [29] 99% | [30] 95% | [31] 75% | [32] 69% | [33] 72% | [34] 69% | [35] 100% | [36] 100% | [37] 98% | [38] 100% | [39] 100% | [40] 92% | [41] 100% | [42] 100% | [43] 100% | [44] 91% | [45] 95%
active: [13] 6%

Cn1cncc1[C@](O)(COc1ccc(C#N)cc1-c1ccc(OC(F)(F)F)cc1)c1ccc(C#N)cc1 [ABT-100]
active: [29] 46%
inactive: [1] 100% | [2] 96% | [3] 100% | [4] 100% | [5] 81% | [6] 83% | [7] 67% | [8] 100% | [9] 94% | [10] 97% | [11] 76% | [12] 86% | [13] 100% | [14] 90% | [15] 83% | [16] 69% | [17] 91% | [18] 99% | [19] 59% | [20] 89% | [21] 72% | [22] 100% | [23] 77% | [24] 84% | [25] 86% | [26] 100% | [27] 88% | [28] 65% | [30] 100% | [31] 88% | [32] 77% | [33] 100% | [34] 100% | [35] 89% | [36] 83% | [37] 85% | [38] 93% | [39] 76% | [40] 100% | [41] 81% | [42] 95% | [43] 87% | [44] 91% | [45] 100%
